Laboratory results taken from patent publication US9556139B2, “6-substituted phenoxychroman carboxylic acid derivatives” (Array BioPharma Inc., priority 2008, dated 2017).
Where two headings read alike, the source gives them in different places.

Molecular target: human DP2 (Homo sapiens (Human), UniProt Q9Y5Y4)
Assay: DP-2 Binding Inhibition Assay (3H-PGD2 binding to membranes of K562 cells expressing DP2)
Conditions: inhibition of 3H-PGD2 binding
Method: DP-2 Binding Inhibition Assay
The coding sequence of human DP2 was introduced into the human Leukemic cell line K562 by electroporation and stable clones expressing DP2 were obtained by limiting dilution followed by cell surface staining with a rat monoclonal antibody specific for human DP2. Membranes were prepared from one of these DP2 expressing clones and used to determine the ability of compounds of the present invention to inhibit binding of prostaglandin D2 (PGD2) to its receptor DP2 in the presence of one or more of the following serum protein concentrations, 0.1% BSA, 1% HSA or 4% HSA, by the following procedure. Membranes (1.25 μg/well for 0.1% BSA and 6 μg/well for 1% or 4% HSA) were mixed with ^3H-labeled PGD2 and various concentrations of test compounds in 150 μL of binding buffer (50 mM Tris-HCl, pH 7.4, 40 mM MgCl2, 0.1% bovine serum albumin, 0.1% NaN3) in 96-well U-bottom polypropylene plates. After incubation for 60 minutes at room temperature, the assay was transferred to a filtration plate (#MAFB; Millipore Corporation, Bedford, Mass.), and washed three times with binding buffer. Radioactivity was measured by a scintillation counter (TopCount; PerkinElmer Life Sciences, Boston, Mass.). Nonspecific binding was determined by incubations in the presence of 1 μM unlabeled PGD2 or 5 μM of a known DP2 antagonist. EC50 values for inhibition of binding were determined for each compound tested from the inflexion point of a standard 4-parameter logistical curve fitted to the values obtained.

[1] = read-out: EC50 (nM) 4% HSA, 4% HSA
[2] = read-out: EC50 (Nm) 1% HSA, 1% HSA

Sequence of human DP2 (Q9Y5Y4 whole entry): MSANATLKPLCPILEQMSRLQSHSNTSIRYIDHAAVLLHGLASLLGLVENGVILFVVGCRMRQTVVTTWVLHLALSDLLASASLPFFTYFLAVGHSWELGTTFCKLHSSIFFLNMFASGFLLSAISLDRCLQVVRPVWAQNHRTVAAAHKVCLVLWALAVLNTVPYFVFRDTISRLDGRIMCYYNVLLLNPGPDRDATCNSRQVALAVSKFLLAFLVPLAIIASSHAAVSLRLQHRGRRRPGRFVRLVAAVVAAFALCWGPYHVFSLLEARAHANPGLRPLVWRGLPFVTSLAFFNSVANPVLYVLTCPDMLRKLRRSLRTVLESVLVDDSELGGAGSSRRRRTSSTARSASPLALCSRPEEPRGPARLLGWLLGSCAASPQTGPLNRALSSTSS

CC(C)(C)C1CCC(NC(=O)c2ccc(Oc3cc4c(cc3C#N)C(C(=O)O)CCO4)cc2)CC1 (centres unmarked) [Example 127, 7-(4-(4-tert-Butylcyclohexylcarbamoyl)phenoxy)-6-cyanochroman-4-carboxylic acid]
EC50 [1]: 270 nM

O=C(NCCc1cc(Cl)ccc1Cl)c1ccc(Oc2cc3c(cc2Cl)C(C(=O)O)CCO3)cc1 (centres unmarked) [Example 103, Sodium 6-chloro-7-(4-(2,5-dichlorophenethylcarbamoyl)phenoxy)chroman-4-carboxylate]
EC50 [1]: 392 nM

Cc1cc(C(=O)NCCc2ccc(Cl)cc2Cl)ccc1Oc1cc2c(cc1Cl)C(C(=O)O)CCO2 (centres unmarked) [Example 182, Sodium 6-chloro-7-(4-(2,4-dichlorophenethylcarbamoyl)-2-methylphenoxy)chroman-4-carboxylate]
EC50 [1]: 151 nM

CCOc1ccc(CCNC(=O)c2ccc(Oc3cc4c(cc3Cl)C(C(=O)O)CCO4)cc2)c(OC)c1 (centres unmarked) [Example 227, 6-chloro-7-(4-(4-ethoxy-2-methoxyphenethylcarbamoyl)phenoxy)chroman-4-carboxylic acid]
EC50 [1]: 74.5 nM

O=C(NCCc1ccccc1C1CC1)c1ccc(Oc2cc3c(cc2Cl)C(C(=O)O)CCO3)cc1 (centres unmarked) [Example 93, Sodium 6-chloro-7-(4-(2-cyclopropylphenethylcarbamoyl)phenoxy)chroman-4-carboxylate]
EC50 [1]: 107 nM

CCOc1cc(Cl)c(Cl)cc1CCNC(=O)c1ccc(Oc2cc3c(cc2Cl)C(C(=O)O)CCO3)cc1 (centres unmarked) [Example 201, sodium 6-chloro-7-(4-(4,5-dichloro-2-ethoxyphenethylcarbamoyl)phenoxy)chroman-4-carboxylate]
EC50 [1]: 138 nM

Cc1cccc(-c2cccc(NC(=O)c3ccc(Oc4cc5c(cc4C#N)C(C(=O)O)CCO5)cc3)c2)c1C (centres unmarked) [Example 109, 6-Cyano-7-(4-(2′,3′-dimethylbiphenyl-3-ylcarbamoyl)phenoxy)chroman-4-carboxylic acid]
EC50 [1]: 104 nM

Cc1ccc(-c2cccc(NC(=O)c3ccc(Oc4cc5c(cc4C#N)C(C(=O)O)CCO5)cc3)c2)cc1 (centres unmarked) [Example 107, 6-Cyano-7-(4-(4′-methylbiphenyl-3-ylcarbamoyl)phenoxy)chroman-4-carboxylic acid]
EC50 [1]: 115 nM

O=C(NCCC1CCCC1)c1ccc(Oc2cc3c(cc2Cl)C(C(=O)O)CCO3)cc1 (centres unmarked) [Example 186, Sodium 6-chloro-7-(4-(2-cyclopentylethylcarbamoyl)phenoxy)chroman-4-carboxylate]
EC50 [1]: 538 nM

COc1cccc(C2CCCC(NC(=O)c3ccc(Oc4cc5c(cc4Cl)C(C(=O)O)CCO5)cc3)C2)c1 (centres unmarked) [Example 163, 6-Chloro-7-(4-(3-(3-methoxyphenyl)cyclohexylcarbamoyl)phenoxy)chroman-4-carboxylic acid]
EC50 [1]: 509 nM

O=C(NCCc1ccc(Cl)cc1Cl)c1ccc(Oc2c(C3CC3)cc3c(c2C2CC2)OCCC3C(=O)O)cc1 (centres unmarked) [Example 40, Sodium 6,8-dicyclopropyl-7-(4-(2,4-dichlorophenethylcarbamoyl)phenoxy)chroman-4-carboxylate]
EC50 [1]: 42.2 nM

N#Cc1cc2c(cc1Oc1ccc(C(=O)NCCc3cccc4ccccc34)cc1)OCCC2C(=O)O (centres unmarked) [Example 55, 6-Cyano-7-(4-(2-(naphthalen-1-yl)ethylcarbamoyl)phenoxy)chroman-4-carboxylic acid]
EC50 [2]: 12.1 nM

O=C(NCCc1cccc2c1OCO2)c1ccc(Oc2cc3c(cc2Cl)C(C(=O)O)CCO3)cc1 (centres unmarked) [Example 193, sodium 7-(4-(2-(benzo[d][1,3]dioxol-4-yl)ethylcarbamoyl)phenoxy)-6-chlorochroman-4-carboxylate]
EC50 [1]: 640 nM

Cc1cccc(CCNC(=O)c2ccc(Oc3cc4c(cc3Cl)C(C(=O)O)CCO4)cc2)c1 (centres unmarked) [Example 146, Sodium 6-chloro-7-(4-(3-methylphenethylcarbamoyl)phenoxy)chroman-4-carboxylate]
EC50 [1]: 608 nM

O=C(NCCCCc1ccccc1)c1ccc(Oc2cc3c(cc2Cl)C(C(=O)O)CCO3)cc1 (centres unmarked) [Example 13, Sodium 6-chloro-7-(4-(4-phenylbutylcarbamoyl)phenoxy)chroman-4-carboxylate]
EC50 [1]: 405 nM

COc1cc(C2CC2)ccc1CCNC(=O)c1ccc(Oc2cc3c(cc2Cl)[C@@H](C(=O)O)CCO3)cc1 (single isomer, unassigned; enantiomer 2) [235 Enantiomer 2]
EC50 [1]: 17 nM

N#Cc1cc2c(cc1Oc1ccc(C(=O)NCCc3ccccc3)cc1)OCCC2C(=O)O (centres unmarked) [Example 5, 6-Cyano-7-(4-(phenethylcarbamoyl)phenoxy)chroman-4-carboxylic acid]
EC50 [2]: 37.4 nM

O=C(NCCc1ccc(Cl)cc1OCC1CC1)c1ccc(Oc2cc3c(cc2Cl)C(C(=O)O)CCO3)cc1 (centres unmarked) [Example 199, sodium 6-chloro-7-(4-(4-chloro-2-(cyclopropyl-methoxy)phenethylcarbamoyl)phenoxy)chroman-4-carboxylate]
EC50 [1]: 111 nM

O=C(NCCc1cccc(O)c1)c1ccc(Oc2cc3c(cc2Cl)C(C(=O)O)CCO3)cc1 (centres unmarked) [Example 83, Sodium 6-chloro-7-(4-(3-hydroxyphenethylcarbamoyl)phenoxy)chroman-4-carboxylate]
EC50 [1]: 569 nM

O=C(NCCc1ccc(-c2ccccc2Cl)cc1Cl)c1ccc(Oc2cc3c(cc2Cl)C(C(=O)O)CCO3)cc1 (centres unmarked) [Example 29, Sodium 6-chloro-7-(4-(2-(2′,3-dichlorobiphenyl-4-yl)ethylcarbamoyl)phenoxy)chroman-4-carboxylate]
EC50 [1]: 137 nM

O=C(NC1CCN(c2cccc(C(F)(F)F)c2)CC1)c1ccc(Oc2cc3c(cc2Cl)C(C(=O)O)CCO3)cc1 (centres unmarked) [Example 123, Sodium 6-chloro-7-(4-(1-(3-(trifluoromethyl)phenyl)piperidin-4-ylcarbamoyl)phenoxy)chroman-4-carboxylate]
EC50 [1]: 259 nM

O=C(NCCc1ccc(-c2ccccc2)cc1)c1ccc(Oc2cc3c(cc2Cl)C(C(=O)O)CCO3)cc1 (centres unmarked) [Example 59]
EC50 [1]: 158 nM

N#Cc1cc2c(cc1Oc1ccc(C(=O)NC3CC3c3ccccc3)cc1)OCCC2C(=O)O (centres unmarked) [Example 47, 7-(4-((2-Phenylcyclopropyl)carbamoyl)phenoxy)-6-cyano-3,4-dihydro-2H-chromene-4-carboxylic acid]
EC50 [2]: 12.1 nM

N#Cc1cc2c(cc1Oc1ccc(C(=O)NC3Cc4ccccc4C3)cc1)OCCC2C(=O)O (centres unmarked) [Example 6, 6-Cyano-7-(4-(2,3-dihydro-1H-inden-2-ylcarbamoyl)phenoxy)chroman-4-carboxylic acid]
EC50 [2]: 77.3 nM

O=C(NCCc1ccc(Cl)cc1)c1ccc(Oc2c(Cl)cc3c(c2Cl)OCCC3C(=O)O)cc1 (centres unmarked) [Example 46, Sodium 6,8-dichloro-7-(4-(4-chlorophenethylcarbamoyl)phenoxy)chroman-4-carboxylate]
EC50 [2]: 15.8 nM | EC50 [1]: 176 nM

CCOc1ccccc1CCNC(=O)c1ccc(Oc2cc3c(cc2Cl)C(C(=O)O)CCO3)cc1 (centres unmarked) [Example 114, Sodium 6-chloro-7-(4-(2-ethoxyphenethylcarbamoyl)phenoxy)chroman-4-carboxylate]
EC50 [1]: 91 nM

O=C(NCCc1ccccc1-c1cccc(Cl)c1)c1ccc(Oc2cc3c(cc2Cl)C(C(=O)O)CCO3)cc1 (centres unmarked) [Example 95, Sodium 6-chloro-7-(4-(2-(3′-chlorobiphenyl-2-yl)ethylcarbamoyl)phenoxy)chroman-4-carboxylate]
EC50 [1]: 91.8 nM

O=C(NC1CCN(c2cccc(Cl)c2)CC1)c1ccc(Oc2cc3c(cc2Cl)C(C(=O)O)CCO3)cc1 (centres unmarked) [Example 120, Sodium 6-chloro-7-(4-(1-(3-chlorophenyl)piperidin-4-ylcarbamoyl)phenoxy)chroman-4-carboxylate]
EC50 [1]: 371 nM
